According to the supplement of paper PMC13380429:

Tests used:
Conditions in all cases: 72 h
Caco-2 [1] = assay: cell viability relative to DMSO; higher = less toxic
Calu-3 [2] = assay: as above
HepG2 [3] = assay: as above
U2OS [4] = assay: as above
Vero E6 [5] = assay: as above
Caco-2 [6] = assay: relative viability EC50 (midpoint between 100% and the lowest measured viability); higher = less toxic
Calu-3 [7] = assay: as above
HepG2 [8] = assay: as above
U2OS [9] = assay: as above
Vero E6 [10] = assay: as above
Caco-2 [11] = assay: drug sensitivity score (DSS) for viability; higher = more toxic; extreme values may be limits of the assay
Calu-3 [12] = assay: as above
HepG2 [13] = assay: as above
U2OS [14] = assay: as above
Vero E6 [15] = assay: as above

SMILES | cell viability (Caco-2 [1]; 1 nM) | cell viability (Caco-2 [1]; 10 nM) | cell viability (Caco-2 [1]; 100 nM) | cell viability (Caco-2 [1]; 1000 nM) | cell viability (Caco-2 [1]; 10000 nM) | cell viability (Calu-3 [2]; 1 nM) | cell viability (Calu-3 [2]; 10 nM) | cell viability (Calu-3 [2]; 100 nM) | cell viability (Calu-3 [2]; 1000 nM) | cell viability (Calu-3 [2]; 10000 nM) | cell viability (HepG2 [3]; 1 nM) | cell viability (HepG2 [3]; 10 nM) | cell viability (HepG2 [3]; 100 nM) | cell viability (HepG2 [3]; 1000 nM) | cell viability (HepG2 [3]; 10000 nM) | cell viability (U2OS [4]; 1 nM) | cell viability (U2OS [4]; 10 nM) | cell viability (U2OS [4]; 100 nM) | cell viability (U2OS [4]; 1000 nM) | cell viability (U2OS [4]; 10000 nM) | cell viability (Vero E6 [5]; 1 nM) | cell viability (Vero E6 [5]; 10 nM) | cell viability (Vero E6 [5]; 100 nM) | cell viability (Vero E6 [5]; 1000 nM) | cell viability (Vero E6 [5]; 10000 nM) | relative viability EC50 (Caco-2 [6]) | relative viability EC50 (Calu-3 [7]) | relative viability EC50 (HepG2 [8]) | relative viability EC50 (U2OS [9]) | relative viability EC50 (Vero E6 [10]) | drug sensitivity score (Caco-2 [11]) | drug sensitivity score (Calu-3 [12]) | drug sensitivity score (HepG2 [13]) | drug sensitivity score (U2OS [14]) | drug sensitivity score (Vero E6 [15])
O=C(c1cc2ccccc2o1)N1CCN(Cc2ccccc2)CC1 [befuraline] | 85% | 91% | 88.8% | 99.2% | 84.4% | 94.1% | 97.8% | 100% | 93.8% | 90.7% | 102% | 97% | 101% | 94.1% | 102% | 95.8% | 97.6% | 95.1% | 98% | 94.6% | 113% | 97.2% | 106% | 103% | 96.7% | > 10 µM | > 10 µM | > 10 µM | > 10 µM | > 10 µM | 0 | 0 | 0 | 0 | 0
C[C@@H]1O[C@@H]1P(=O)(O)O [FOSFOMYCIN CALCIUM] | 97.3% | 94.5% | 94.4% | 94.1% | 101% | 100% | 104% | 97.7% | 97.5% | 94.9% | 97.6% | 101% | 94.8% | 111% | 97.3% | 103% | 97.9% | 103% | 98.8% | 102% | 105% | 101% | 98.7% | 99.2% | 100% | > 10 µM | > 10 µM | > 10 µM | > 10 µM | > 10 µM | 0 | 0 | 0 | 0 | 0
Cc1ccccc1OCC(O)CO (stereo not given) [mephenesin] | 90.8% | 96.5% | 94.4% | 93.1% | 92.7% | 111% | 91.1% | 103% | 101% | 106% | 107% | 113% | 109% | 102% | 99.8% | 101% | 96.8% | 104% | 97.1% | 100% | 110% | 103% | 99.6% | 102% | 98.4% | > 10 µM | > 10 µM | > 10 µM | > 10 µM | > 10 µM | 0 | 0 | 0 | 0 | 0
Cc1cccc(C)c1OCC(=O)N[C@@H](Cc1ccccc1)[C@@H](O)C[C@H](Cc1ccccc1)NC(=O)[C@H](C(C)C)N1CCCNC1=O [Lopinavir] | 95% | 101% | 100% | 101% | 83.7% | 95.4% | 84.9% | 92.7% | 93.9% | 89.2% | 101% | 87.1% | 103% | 105% | 95.4% | 99.5% | 95.2% | 103% | 94.1% | 96.5% | 93.3% | 100% | 100% | 100% | 104% | > 10 µM | > 10 µM | > 10 µM | > 10 µM | > 10 µM | 0.3 | 0 | 0 | 0 | 0
C#CCOC(=O)C1=CCCN(C)C1 [arecaidine-propargyl-ester] | 91.4% | 98.4% | 94.4% | 98% | 103% | 100% | 103% | 95.2% | 100% | 95.6% | 95.1% | 95.5% | 101% | 102% | 102% | 98% | 93.2% | 99.3% | 102% | 101% | 97.4% | 99% | 95% | 98.4% | 107% | > 10 µM | > 10 µM | > 10 µM | > 10 µM | > 10 µM | 0 | 0 | 0 | 0 | 0
NNC(=O)CN1C(=O)CN=C(c2ccccc2)c2cc(Br)ccc21 [gidazepam] | 95.8% | 92.7% | 94.4% | 90.2% | 95.7% | 104% | 99% | 100% | 110% | 98.5% | 106% | 92.2% | 109% | 106% | 106% | 96.5% | 92.2% | 96.8% | 91% | 97.5% | 99.3% | 102% | 93% | 94.1% | 102% | > 10 µM | > 10 µM | > 10 µM | > 10 µM | > 10 µM | 0 | 0 | 0 | 0 | 0
COc1ccc(COc2cc3oc(=O)c4cc(C(C)O)ccc4c3cc2OC)cc1 (stereo not given) [palomid-529] | 107% | 94.1% | 96.4% | 85.6% | 93.7% | 111% | 98.9% | 84.8% | 101% | 96.2% | 97.3% | 100% | 101% | 99.6% | 102% | 96.3% | 105% | 94.4% | 94% | 99.8% | 101% | 100% | 99% | 100% | 99.7% | > 10 µM | > 10 µM | > 10 µM | > 10 µM | > 10 µM | 0.3 | 0 | 0 | 0 | 0
CCS(=O)(=O)N1CCC[C@@H]2CN3CCc4cc(OC)ccc4[C@@H]3C[C@@H]21 | 94.7% | 94.2% | 95% | 104% | 91.7% | 103% | 90.4% | 109% | 101% | 103% | 99.9% | 113% | 109% | 92.2% | 102% | 99.5% | 103% | 108% | 108% | 106% | 96.3% | 103% | 97.1% | 93.8% | 105% | > 10 µM | > 10 µM | > 10 µM | > 10 µM | > 10 µM | 0 | 0 | 0 | 0 | 0
CN1[C@@H]2CC[C@H]1C[C@@H](OC(=O)c1c[nH]c3ccccc13)C2 [tropisetron] | 102% | 108% | 101% | 103% | 97.5% | 100% | 93.8% | 99.9% | 88.6% | 97.6% | 100% | 101% | 93.1% | 96.7% | 101% | 104% | 103% | 96.8% | 100% | 98.3% | 98.2% | 97.3% | 98.2% | 99.9% | 96.2% | > 10 µM | > 10 µM | > 10 µM | > 10 µM | > 10 µM | 0 | 0 | 0 | 0 | 0
COC1(C2=NCCN2)COc2ccccc2O1 (stereo not given) | 99.5% | 91.5% | 101% | 89.7% | 91.4% | 100% | 103% | 96% | 93% | 94.6% | 109% | 109% | 91.2% | 107% | 99.3% | 96.2% | 95.1% | 103% | 97.9% | 101% | 103% | 96% | 93.3% | 100% | 98.2% | > 10 µM | > 10 µM | > 10 µM | > 10 µM | > 10 µM | 0 | 0 | 0 | 0 | 0
CCOC(=O)C1=C[C@@H](OC(CC)CC)[C@H](NC(C)=O)[C@@H](N)C1 [oseltamivir-phosphate] | 79.7% | 92.2% | 92.6% | 95.9% | 94% | 99.4% | 96.9% | 104% | 103% | 106% | 107% | 98.6% | 98% | 106% | 107% | 93.4% | 104% | 97.9% | 97.6% | 102% | 95.4% | 93.2% | 99.1% | 92.4% | 103% | > 10 µM | > 10 µM | > 10 µM | > 10 µM | > 10 µM | 0 | 0 | 0 | 0 | 0
CC[C@H]1[C@@H]2C[C@H]3[C@@H]4N(C)c5ccccc5[C@]45C[C@@H]([C@@H]2[C@H]5O)N3[C@@H]1O [ajmaline] | 101% | 94% | 94.9% | 90.6% | 88% | 101% | 108% | 91.9% | 104% | 108% | 92% | 90% | 95% | 105% | 94.7% | 96% | 101% | 95.7% | 102% | 97.5% | 96.1% | 95% | 105% | 99.5% | 88.9% | > 10 µM | > 10 µM | > 10 µM | > 10 µM | > 10 µM | 0.1 | 0 | 0 | 0 | 0
NC(=O)[C@@H](CCC(F)(F)F)N(Cc1ccc(-c2ncon2)cc1F)S(=O)(=O)c1ccc(Cl)cc1 [avagacestat] | 103% | 99.9% | 95.9% | 93.2% | 77.1% | 96.2% | 105% | 106% | 95.2% | 105% | 96.6% | 102% | 94.9% | 105% | 87.9% | 99.1% | 94.9% | 102% | 93.1% | 96.5% | 107% | 110% | 106% | 109% | 99.2% | > 10 µM | > 10 µM | > 10 µM | > 10 µM | > 10 µM | 1.4 | 0 | 0 | 0 | 0
CC(O)CC(=O)O (stereo not drawn) [beta-hydroxybutyrate] | 114% | 99.4% | 122% | 104% | 103% | 99.2% | 106% | 100% | 96.9% | 94.5% | 90.5% | 96.2% | 101% | 99.7% | 99% | 94.6% | 95.1% | 99.3% | 97.8% | 101% | 97.6% | 95.3% | 93.3% | 97.1% | 114% | > 10 µM | > 10 µM | > 10 µM | > 10 µM | > 10 µM | 0 | 0 | 0 | 0 | 0
